Patent US9656968B2, “Pyrimidines as sodium channel blockers” (PURDUE PHARMA L.P, priority 2011, dated 2017)
Where two headings read alike, the source gives them in different places.

What was measured:
[1] = target: human Nav1.7 (Homo sapiens (Human), UniProt Q15858); experiment: FLIPR sodium dye assay for sodium channel blocking activity (recombinant Nav1.7/HEK293 cells); assay type: cell-based
[2] = test system: SNL-induced mechanical hyperalgesia; experiment: SNL-induced mechanical hyperalgesia model (paw pressure test, PWT); assay type: in vivo, rat; conditions: dosed orally at 100 mg/kg, vehicle 0.5% methyl cellulose, one hour before testing
Procedure: In the Chung model, the spinal nerve ligation (SNL) model of neuropathic pain is used to produce mechanical hyperalgesia, thermal hyperalgesia, and tactile allodynia in rats. Surgery is performed under isoflurane/O2 inhalation anesthesia. Following induction of anesthesia a 3 cm incision is made and the left paraspinal muscles are separated from the spinous process at the L4-S2 levels. The L6 transverse process is carefully removed with a pair of small rongeurs to identify visually the L4-L6 spinal nerves. The left L5 (or L5 and L6) spinal nerve(s) is (are) isolated and tightly ligated with silk thread. […] The animals can also be assessed for response to noxious thermal stimuli or for tactile allodynia, as described below. […] Sensitivity to noxious mechanical stimuli was measured in animals using the paw pressure test to assess mechanical hyperalgesia. In rats, hind paw withdrawal thresholds (“PWT”), measured in grams, in response to a noxious mechanical stimulus were determined using an analgesymeter (Model 7200, commercially available from Ugo Basile of Italy), as described in Stein (Biochemistry & Behavior 31: 451-455 (1988)). […] PWT was determined once for each rat at each time point. PWT can be measured only in the injured paw, or in both the injured and non-injured paw. […]

[3] = recombinant human Nav1.7 in HEK293

Chain of human Nav1.7 (Q15858 other isoform, or with tags, fused parts or gaps): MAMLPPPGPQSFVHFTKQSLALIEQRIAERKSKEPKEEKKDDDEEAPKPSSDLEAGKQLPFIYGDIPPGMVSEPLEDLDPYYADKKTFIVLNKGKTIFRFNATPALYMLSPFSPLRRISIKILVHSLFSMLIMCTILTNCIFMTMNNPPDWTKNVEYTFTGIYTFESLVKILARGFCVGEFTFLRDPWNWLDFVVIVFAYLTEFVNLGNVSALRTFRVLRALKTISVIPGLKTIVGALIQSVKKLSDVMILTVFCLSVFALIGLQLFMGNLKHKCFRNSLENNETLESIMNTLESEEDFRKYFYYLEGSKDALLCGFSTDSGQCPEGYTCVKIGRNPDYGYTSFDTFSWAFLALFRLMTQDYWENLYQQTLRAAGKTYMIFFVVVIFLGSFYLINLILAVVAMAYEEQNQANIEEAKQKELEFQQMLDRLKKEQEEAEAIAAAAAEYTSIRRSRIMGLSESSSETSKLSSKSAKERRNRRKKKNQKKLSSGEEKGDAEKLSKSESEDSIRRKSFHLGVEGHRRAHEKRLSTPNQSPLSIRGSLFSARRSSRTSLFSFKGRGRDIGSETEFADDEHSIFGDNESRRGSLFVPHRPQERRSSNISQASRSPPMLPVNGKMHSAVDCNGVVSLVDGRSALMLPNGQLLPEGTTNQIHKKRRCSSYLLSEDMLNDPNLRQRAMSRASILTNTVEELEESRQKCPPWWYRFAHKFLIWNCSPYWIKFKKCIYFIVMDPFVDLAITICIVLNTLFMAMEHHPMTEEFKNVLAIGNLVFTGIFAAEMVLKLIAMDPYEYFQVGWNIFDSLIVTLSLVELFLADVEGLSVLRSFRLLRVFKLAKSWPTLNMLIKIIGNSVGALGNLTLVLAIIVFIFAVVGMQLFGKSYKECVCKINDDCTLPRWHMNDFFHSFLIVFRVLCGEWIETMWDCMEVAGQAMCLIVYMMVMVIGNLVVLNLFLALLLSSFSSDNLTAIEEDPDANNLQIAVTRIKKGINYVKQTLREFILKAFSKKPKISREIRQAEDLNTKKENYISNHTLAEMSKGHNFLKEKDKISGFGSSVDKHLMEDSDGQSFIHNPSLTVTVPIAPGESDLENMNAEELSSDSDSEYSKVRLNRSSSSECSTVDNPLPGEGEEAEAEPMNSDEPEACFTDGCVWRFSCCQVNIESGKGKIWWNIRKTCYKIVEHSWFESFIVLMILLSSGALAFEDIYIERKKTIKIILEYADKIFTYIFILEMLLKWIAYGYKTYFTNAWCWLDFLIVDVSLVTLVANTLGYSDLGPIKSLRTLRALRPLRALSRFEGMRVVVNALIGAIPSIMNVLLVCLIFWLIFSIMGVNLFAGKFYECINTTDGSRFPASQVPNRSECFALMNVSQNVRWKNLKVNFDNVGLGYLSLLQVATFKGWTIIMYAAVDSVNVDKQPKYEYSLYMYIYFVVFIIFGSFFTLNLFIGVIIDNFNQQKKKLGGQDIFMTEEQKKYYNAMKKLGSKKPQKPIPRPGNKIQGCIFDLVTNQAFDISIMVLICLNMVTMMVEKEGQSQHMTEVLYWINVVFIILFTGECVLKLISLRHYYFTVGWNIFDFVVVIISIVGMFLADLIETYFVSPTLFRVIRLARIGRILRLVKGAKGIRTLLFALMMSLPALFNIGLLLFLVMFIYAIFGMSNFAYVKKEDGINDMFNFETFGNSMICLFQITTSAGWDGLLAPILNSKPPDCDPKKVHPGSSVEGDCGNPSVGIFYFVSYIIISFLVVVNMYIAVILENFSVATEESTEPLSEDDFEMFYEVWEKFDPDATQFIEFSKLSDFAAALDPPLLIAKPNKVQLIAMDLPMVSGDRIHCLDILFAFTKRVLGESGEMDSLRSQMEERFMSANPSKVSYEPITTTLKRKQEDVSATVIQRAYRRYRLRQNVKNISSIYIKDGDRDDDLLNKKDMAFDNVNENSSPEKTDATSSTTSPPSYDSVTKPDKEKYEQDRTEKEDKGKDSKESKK

SMILES	IC50 [1, 3] [nM]	SNL-induced mechanical hyperalgesia in rats [2]	further results
C[C@H](Oc1cc(C(N)=O)nc(-c2ccc(Oc3cc(Cl)ccc3F)cc2)n1)C(N)=O [Cpd No. 92]	270		
C[C@H](Nc1cc(C(N)=O)nc(-c2ccc(Oc3cc(C(F)(F)F)ccn3)cc2)n1)C(N)=O [compound 57]	3250		
NC(=O)c1cc(N[C@H]2CCNC2=O)nc(-c2ccc(Oc3ccc(C(F)(F)F)cn3)cc2)n1 [compound 99, (S)-6-((2-oxopyrrolidin-3-yl)amino)-2-(4-((5-(trifluoromethyl)pyridin-2-yl)oxy)phenyl)pyrimidine-4-carboxamide]		reduced SNL-induced mechanical hyperalgesia	
C[C@H](Nc1cc(C(N)=O)nc(-c2ccc(Oc3ccc(OC(F)(F)F)cc3)cc2)n1)C(N)=O [compound 84, (S)-6-((1-amino-1-oxopropan-2-yl)amino)-2-(4-(4-(trifluoromethoxy)phenoxy)phenyl)pyrimidine-4-carboxamide]		reduced SNL-induced mechanical hyperalgesia	
C[C@H](Oc1cc(C(N)=O)nc(-c2ccc(Oc3ccc(Cl)cc3F)cc2)n1)C(N)=O [Cpd No. 93]	83		
C[C@H](Nc1cc(C(N)=O)nc(-c2ccc(Oc3ccc(F)cc3)c(CO)c2)n1)C(N)=O [compound 97, (S)-6-((1-amino-1-oxopropan-2-yl)amino)-2-(4-(4-fluorophenoxy)-3-(hydroxymethyl)phenyl)pyrimidine-4-carboxamide]			IC50 [1]: 5720 nM
